Measurements: ChEMBL document CHEMBL1641599, “Design of novel N-phenylnicotinamides as selective cyclooxygenase-1 inhibitors” (Bioorg Med Chem Lett, 2011)

The molecules below were run against T1, Prostaglandin G/H synthase 1 (Ovis aries) (UniProt P05979) (assay: Inhibition of ovine COX1 at 100 uM after 5 mins by microplate reader assay).
T1 sequence (whole entry): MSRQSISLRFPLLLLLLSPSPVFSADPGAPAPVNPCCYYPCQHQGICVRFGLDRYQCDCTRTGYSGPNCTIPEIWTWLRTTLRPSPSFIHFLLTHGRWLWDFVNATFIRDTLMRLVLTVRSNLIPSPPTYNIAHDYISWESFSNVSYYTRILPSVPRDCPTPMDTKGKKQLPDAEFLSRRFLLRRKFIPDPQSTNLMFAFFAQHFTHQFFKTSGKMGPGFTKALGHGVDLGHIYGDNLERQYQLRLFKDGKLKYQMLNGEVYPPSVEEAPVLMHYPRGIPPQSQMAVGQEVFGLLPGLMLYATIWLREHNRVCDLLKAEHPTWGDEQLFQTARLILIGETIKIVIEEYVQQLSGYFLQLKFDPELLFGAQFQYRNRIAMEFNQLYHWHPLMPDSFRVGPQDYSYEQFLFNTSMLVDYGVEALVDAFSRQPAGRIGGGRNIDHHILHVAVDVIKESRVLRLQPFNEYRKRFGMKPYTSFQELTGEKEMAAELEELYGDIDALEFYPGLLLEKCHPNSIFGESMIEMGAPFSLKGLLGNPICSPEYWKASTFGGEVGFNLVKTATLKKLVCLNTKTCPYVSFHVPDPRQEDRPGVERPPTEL

Row | SMILES | inhibition [%]
1 | COc1ccc(NC(=O)c2ccc(O)nc2)cc1 | 53
2 | COc1ccc(NC(=O)c2cncc(Br)c2)cc1 | 0
3 | O=C(Nc1ccc(Cl)cc1Cl)c1cnc(Cl)c(Cl)c1 | 40
4 | O=C(Nc1ccc(Br)cc1)c1cncc(Br)c1 | 5
5 | O=C(Nc1ccc(Cl)cc1Cl)c1cnc(O)c(Cl)c1 | 72
6 | Cc1ccc(C(=O)Nc2cc(Cl)cc(Cl)c2)cn1 | 20
7 | O=C(Nc1ccc(Cl)cc1Cl)c1cncc(Br)c1 | 19
8 | Cc1ccc(NC(=O)c2ccc(C)nc2)cc1 | 10
9 | O=C(Nc1cccc(Cl)c1)c1cccnc1O | 35
10 | O=C(Nc1cc(Cl)cc(Cl)c1)c1cnc(Cl)c(Cl)c1 | 34
11 | COc1ccc(NC(=O)c2ccc(Cl)nc2)cc1 | 38
12 | O=C(Nc1ccc(F)cc1)c1ccc(Cl)nc1 | 41
13 | O=C(Nc1ccc(Br)cc1)c1cccnc1O | 47
14 | COc1ccc(NC(=O)c2cccnc2O)cc1 | 42
15 | O=C(Nc1ccc(F)cc1)c1cccnc1O | 64
16 | O=C(Nc1ccc(F)cc1)c1ccc(O)nc1 | 78
17 | COc1ccc(NC(=O)c2ccc(C)nc2)cc1 | 26
18 | Cc1ccc(NC(=O)c2cccnc2O)cc1 | 28
19 | O=C(Nc1ccc(Br)cc1)c1ccc(Cl)nc1 | 18
20 | Cc1ccc(NC(=O)c2ccc(Cl)nc2)cc1 | 25
21 | Cc1ccc(C(=O)Nc2ccc(F)cc2)cn1 | 59
22 | Cc1ccc(C(=O)Nc2ccc(Cl)cc2Cl)cn1 | 38
23 | Cc1ccc(C(=O)Nc2ccc(Br)cc2)cn1 | 35
24 | O=C(Nc1ccc(Br)cc1)c1ccc(O)nc1 | 64
25 | COc1ccc(NC(=O)c2cnc(O)c(Cl)c2)cc1 | 64
26 | Cc1ccc(NC(=O)c2ccc(O)nc2)cc1 | 40
27 | O=C(Nc1cc(Cl)cc(Cl)c1)c1cnc(O)c(Cl)c1 | 63

Other lines, results leading:

Row | inhibition [%] | SMILES
28 | 45 | Cc1ccc(C(=O)Nc2ccc(Cl)cc2)cn1
29 | 58 | O=C(Nc1ccc(Br)cc1)c1cnc(O)c(Cl)c1
30 | 84 | O=C(Nc1ccc(Cl)cc1)c1cnc(O)c(Cl)c1
31 | 75 | O=C(Nc1ccc(Cl)cc1)c1ccc(O)nc1
32 | 60 | O=C(Nc1ccc(Cl)cc1)c1cccnc1O
33 | 90 | O=C(Nc1ccc(F)cc1)c1cnc(O)c(Cl)c1
34 | 42 | O=C(Nc1ccc(Cl)cc1)c1cnc(Cl)c(Cl)c1
35 | 37 | Cc1ccc(NC(=O)c2cnc(Cl)c(Cl)c2)cc1
36 | 45 | O=C(Nc1ccc(F)cc1)c1cnc(Cl)c(Cl)c1
37 | 33 | O=C(Nc1ccc(Br)cc1)c1cnc(Cl)c(Cl)c1
38 | 50 | Cc1ccc(NC(=O)c2cnc(O)c(Cl)c2)cc1
39 | 13 | O=C(Nc1ccc(Cl)cc1)c1cncc(Br)c1
40 | 42 | O=C(Nc1ccc(Cl)cc1)c1ccc(Cl)nc1

These molecules were tested against T2, Prostaglandin G/H synthase 1 (Ovis aries, UniProt P05979) (assay: Inhibition of ovine COX1 after 5 mins by microplate reader assay).
T2 sequence (P05979 whole entry): T1 sequence (whole entry)

Row | SMILES | IC50 [µM]
41 | O=C(Nc1ccc(Cl)cc1Cl)c1cnc(O)c(Cl)c1 | 16
42 | O=C(Nc1ccc(F)cc1)c1ccc(O)nc1 | 3.5
43 | Cc1ccc(C(=O)Nc2ccc(F)cc2)cn1 | 70
44 | O=C(Nc1ccc(F)cc1)c1ccc[nH]c1=O | 32
45 | O=C(Nc1cc(Cl)cc(Cl)c1)c1cnc(O)c(Cl)c1 | 29

Other lines, results leading:

Row | IC50 [µM] | SMILES
46 | 95 | Cc1ccc(NC(=O)c2c[nH]c(=O)c(Cl)c2)cc1
47 | 30 | O=C(Nc1ccc(Br)cc1)c1ccc(=O)[nH]c1
48 | 74 | O=C(Nc1ccc(Br)cc1)c1cnc(O)c(Cl)c1
49 | 9.2 | O=C(Nc1ccc(Cl)cc1)c1ccc(O)nc1
50 | 28 | O=C(Nc1ccc(Cl)cc1)c1cccnc1O
51 | 44 | COc1ccc(NC(=O)c2c[nH]c(=O)c(Cl)c2)cc1
52 | 0.68 | O=C(Nc1ccc(F)cc1)c1c[nH]c(=O)c(Cl)c1
53 | 86 | COc1ccc(NC(=O)c2ccc(=O)[nH]c2)cc1
54 | 2.7 | O=C(Nc1ccc(Cl)cc1)c1c[nH]c(=O)c(Cl)c1
